One test concerns cellular prion protein. The note with it: from individual with no prion disease.
The test system of another test is PrP^Sc. The note with it: brain homogenate of prion disease infected animal and human; biotinylated peptide on streptavidin magnetic beads.

On to AQKKDGKKRKRSRKESYSIYV [peptide-7], for which the “capture of cellular prion protein” value with cellular prion protein was “do not capture cellular prion protein”. For the same sequence, in the test on PrP^Sc, the “ability to capture PrP^Sc from brain homogenate” value (“ability to capture PrP^Sc” below) was “capture PrP^Sc”.
As to NWCKRGRKNCKTH [peptide-2], in the test with cellular prion protein, the “capture of cellular prion protein” value was “do not capture cellular prion protein”. Besides, the “ability to capture PrP^Sc” value in the test on PrP^Sc is on record as “capture PrP^Sc”.
Turning to NYKKPKLG [peptide-3], the “capture of cellular prion protein” value with cellular prion protein is “do not capture cellular prion protein”. For the same sequence, in the test with PrP^Sc, the “ability to capture PrP^Sc” value is recorded as “capture PrP^Sc”.
For WQPPRARI [peptide-1], in that order: “do not capture cellular prion protein” and “capture PrP^Sc”.
With YRGRYGYKGKYGYRG [peptide-6], the “capture of cellular prion protein” value in the test on cellular prion protein is on record as “do not capture cellular prion protein”. Also, the “ability to capture PrP^Sc” value in the test on PrP^Sc is “capture PrP^Sc”.
On to YRGYRGYRGYRG [peptide-5], for which the “capture of cellular prion protein” value in the test with cellular prion protein is reported as “do not capture cellular prion protein”. Also, the “ability to capture PrP^Sc” value with PrP^Sc was “capture PrP^Sc”.

For the origin of these results see patent EP1643252B1 (priority 2004, dated 2009).
